Calls of active or inactive are those of the source. The calls are words filed in the database; no cut-off is given here.
Tests used:
Influenza A virus = assay: Antiviral activity against influenza A virus by plaque inhibition assay; type: functional, organism-based
HCT-116 = assay: Cytotoxicity against human HCT116 cells; type: functional, cell-based
Staphylococcus aureus = assay: Antibacterial activity against methicillin-resistant Staphylococcus aureus; type: functional, organism-based
Plasmodium falciparum = assay: Antimalarial activity against Plasmodium falciparum 3D7 MRA-102, MR4/ATCC infected in human erythrocytes assessed as inhibition of parasite proliferation after 72 hrs by SYBR green assay; type: functional, organism-based

Structure (SMILES)	Activity (Influenza A virus)	Activity (HCT-116)	Activity (Staphylococcus aureus)	IC50 (Plasmodium falciparum) [µM]
CC(C)=CCC/C(C)=C/COC[C@H]1O[C@@H](N2CCC(=O)NC2=O)[C@H](O)[C@@H]1O	Active	–	–	–
CC(C)=CCC[C@@](C)(O)[C@@H](O)CC/C(C)=C/COC[C@H]1O[C@@H](N2CCC(=O)NC2=O)[C@H](O)[C@@H]1O	inactive	inactive	inactive	–
CC(C)=CCC[C@@]1(C)O[C@@H]1CC/C(C)=C/COC[C@H]1O[C@@H](N2CCC(=O)NC2=O)[C@H](O)[C@@H]1O	inactive	inactive	inactive	69.3

Reference: ChEMBL document CHEMBL2417478, “Farnesides A and B, sesquiterpenoid nucleoside ethers from a marine-derived Streptomyces sp., strain CNT-372 from Fiji” (J Nat Prod, 2013)
